In patent US20250177396A1, “POLO-LIKE KINASE 4 (PLK4) INHIBITORS, PHARMACEUTICAL COMPOSITIONS, METHODS OF PREPARATION AND USES THEREOF” (Repare Therapeutics Inc., priority 2022, published 2025):

Biological target: T1, PLK4 (Homo sapiens, UniProt O00444)
T1 construct: expressed in transfected cells; host or cells: HEK293 T cells (ATCC CRL-3216)
T1 sequence (O00444 1-970): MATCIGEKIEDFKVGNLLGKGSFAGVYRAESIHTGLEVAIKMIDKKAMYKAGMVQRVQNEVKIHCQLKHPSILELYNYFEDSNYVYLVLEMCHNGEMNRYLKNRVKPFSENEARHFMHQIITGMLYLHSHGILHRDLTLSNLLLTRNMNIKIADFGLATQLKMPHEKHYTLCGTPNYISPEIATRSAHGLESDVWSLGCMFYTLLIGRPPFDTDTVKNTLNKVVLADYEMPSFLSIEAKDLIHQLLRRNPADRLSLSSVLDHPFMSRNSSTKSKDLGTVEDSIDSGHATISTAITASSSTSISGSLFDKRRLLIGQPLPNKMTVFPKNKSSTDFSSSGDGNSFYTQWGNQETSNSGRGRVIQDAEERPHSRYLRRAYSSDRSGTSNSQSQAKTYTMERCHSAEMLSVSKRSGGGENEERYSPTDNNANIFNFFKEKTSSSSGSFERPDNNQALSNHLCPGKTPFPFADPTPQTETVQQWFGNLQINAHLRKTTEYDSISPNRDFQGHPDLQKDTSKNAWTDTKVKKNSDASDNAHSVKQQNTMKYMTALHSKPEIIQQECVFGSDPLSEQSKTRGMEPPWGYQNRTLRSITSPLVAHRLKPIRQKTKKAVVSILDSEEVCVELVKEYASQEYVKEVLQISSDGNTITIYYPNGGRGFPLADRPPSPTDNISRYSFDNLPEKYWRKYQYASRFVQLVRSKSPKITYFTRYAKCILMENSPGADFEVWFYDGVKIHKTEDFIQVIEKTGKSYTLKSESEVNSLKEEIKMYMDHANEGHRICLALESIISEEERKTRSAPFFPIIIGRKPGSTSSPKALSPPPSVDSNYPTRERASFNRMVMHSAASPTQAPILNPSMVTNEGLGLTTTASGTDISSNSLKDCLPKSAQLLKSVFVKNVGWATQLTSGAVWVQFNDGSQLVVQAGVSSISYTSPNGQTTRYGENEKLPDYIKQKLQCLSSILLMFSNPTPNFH
Experiment: PLK4 NanoBRET target engagement assay
Format: binding
Settings: HEK293 T cells transfected with PLK4 NanoLuc fusion vector; K-5 tracer; 2 hrs incubation
How it was run: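 HEK293T cells transiently expressing PLK4-NanoLuc, plated at 17000 cells/well with K-5 tracer and compound, incubated 2 h at 37 °C/5% CO2. After substrate/inhibitor mix, 610/450 nm emission ratio ×1000 gave mBRET; IC50 from 4-parameter fit.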

IC50 | SMILES
10 nM | Cc1cc(Nc2nc(N(C)c3c(F)cc(S(C)(=O)=O)c(C)c3F)nc(-c3cnn(C)c3)c2C2CC2)n[nH]1 [Compound 114]
22 nM | Cc1cc(Nc2nc(N(C)c3c(F)cc(S(C)(=O)=O)cc3F)nc(-c3cn(C)nc3C#N)c2C2CC2)n[nH]1 [Compound 115]
68 nM | COc1c(Nc2cc(C)[nH]n2)nc(N(C)c2cc(Cl)c(S(C)(=O)=O)cc2F)nc1-c1cnn(C)c1 [Compound 116]
220 nM | COc1c(Nc2cc(C)[nH]n2)nc(N(C)c2ccc(S(C)(=O)=O)c(Cl)c2F)nc1-c1cnn(C)c1 [Compound 117]
> 5000 nM | Cc1cc(Nc2nc(N(C)c3c(F)cc(S(C)(=O)=O)cc3Cl)nc(-c3cnn(C)c3)c2C2CC2)n[nH]1 [Compound 118]
19 nM | Cc1cc(Nc2nc(N(C)c3c(F)cc(S(C)(=O)=O)c(Cl)c3F)nc(-c3cnn(C)c3)c2C2CC2)n[nH]1 [Compound 120]
8 nM | Cc1cc(Nc2nc(N(C)c3c(F)cc(S(C)(=O)=O)cc3F)nc(-c3c[nH]nc3C)c2C2CC2)n[nH]1 [Compound 122]
2 nM | Cc1cc(Nc2nc(N(C)c3c(F)cc(S(C)(=O)=O)cc3F)nc(-c3cn(C)c(C)n3)c2C2CC2)n[nH]1 [Compound 124]
7 nM | Cc1cc(Nc2nc(N(C)c3cc(F)c(S(C)(=O)=O)cc3F)nc(-c3cn(C)cn3)c2C2CC2)n[nH]1 [Compound 125, 5-cyclopropyl-N^2-(2,5-difluoro-4-(methylsulfonyl)phenyl)-N^2-methyl-6-(1-methyl-1H-imidazol-4-yl)-N^4-(5-methyl-1H-pyrazol-3-yl)pyrimidine-2,4-diamine]
5 nM | Cc1cc(Nc2nc(N(C)c3c(F)cc(S(C)(=O)=O)cc3F)nc(-c3cnn(C4CC4)c3)c2C2CC2)n[nH]1 [Compound 126]
6 nM | Cc1cc(Nc2nc(N(C)c3c(F)cc(S(C)(=O)=O)cc3F)nc(-c3cnn(CF)c3)c2C2CC2)n[nH]1 [Compound 127]
6 nM | Cc1cc(Nc2nc(N(C)c3c(F)cc(S(C)(=O)=O)cc3F)nc(-c3cn(C(F)F)cn3)c2C2CC2)n[nH]1 [Compound 128]
57 nM | Cc1cc(Nc2nc(N(C)c3c(F)cc(S(C)(=O)=O)cc3F)nc(-c3c(C)ncn3C)c2C2CC2)n[nH]1 [Compound 129]
24 nM | Cc1cc(-c2nc(N(C)c3c(F)cc(S(C)(=O)=O)cc3F)nc(Nc3cc(C)[nH]n3)c2C2CC2)cnn1 [Compound 130]
9 nM | Cc1cc(Nc2nc(N(C)c3c(F)cc(S(C)(=O)=O)cc3F)nc(-c3cnn(C(F)F)c3)c2C2CC2)n[nH]1 [Compound 131]
18 nM | Cc1cc(Nc2nc(N(C)c3cc(F)c(S(C)(=O)=O)cc3F)nc(-c3ccn(C)n3)c2C2CC2)n[nH]1 [Compound 133]
7 nM | Cc1cc(Nc2nc(N(C)c3c(F)cc(S(C)(=O)=O)cc3F)nc(-c3cncn3C)c2C2CC2)n[nH]1 [Compound 134]
18 nM | Cc1cc(Nc2nc(N(C)c3c(F)cc(S(C)(=O)=O)cc3F)nc(-c3ccncn3)c2C2CC2)n[nH]1 [Compound 135]
5 nM | CCn1cnc(-c2nc(N(C)c3c(F)cc(S(C)(=O)=O)cc3F)nc(Nc3cc(C)[nH]n3)c2C2CC2)c1 [Compound 136]
3 nM | Cc1cc(Nc2nc(N(C)c3c(F)cc(S(C)(=O)=O)cc3F)nc(-c3cn(C(C)C)cn3)c2C2CC2)n[nH]1 [Compound 137]
160 nM | Cc1cc(Nc2nc(N(C)c3c(F)cc(S(C)(=O)=O)cc3F)nc(C3CC3)c2C2CC2)n[nH]1 [Compound 138]
4 nM | COCCn1cnc(-c2nc(N(C)c3c(F)cc(S(C)(=O)=O)cc3F)nc(Nc3cc(C)[nH]n3)c2C2CC2)c1 [Compound 139]
3 nM | Cc1cc(Nc2nc(N(C)c3c(F)cc(S(C)(=O)=O)cc3F)nc(-c3cn4c(n3)CCC4)c2C2CC2)n[nH]1 [Compound 140]

IC50 | SMILES
9 nM | Cc1cc(Nc2nc(N(C)c3c(F)cc(S(C)(=O)=O)cc3F)nc(-c3cnn(CCO)c3)c2C2CC2)n[nH]1 [Compound 141]
13 nM | Cc1cc(Nc2nc(N(C)c3c(F)cc(S(C)(=O)=O)cc3F)nc(-c3nccn3C)c2C2CC2)n[nH]1 [Compound 142]
12 nM | Cc1cc(Nc2nc(N(C)c3c(F)cc(S(C)(=O)=O)cc3F)nc(-c3cn(C(F)F)nc3C)c2C2CC2)n[nH]1 [Compound 143]
18 nM | Cc1cc(Nc2nc(N(C)c3c(F)cc(S(C)(=O)=O)cc3F)nc(-c3cc(C#N)n(C)n3)c2C2CC2)n[nH]1 [Compound 145]
21 nM | Cc1cc(Nc2nc(N(C)c3c(F)cc(S(C)(=O)=O)cc3F)nc(-c3cccnn3)c2C2CC2)n[nH]1 [Compound 146]
5 nM | COc1nn(C)cc1-c1nc(N(C)c2c(F)cc(S(C)(=O)=O)cc2F)nc(Nc2cc(C)[nH]n2)c1C1CC1 [Compound 147]
4 nM | Cc1cc(Nc2nc(N(C)c3c(F)cc(S(C)(=O)=O)cc3F)nc(-c3cn(C4CC4)cn3)c2C2CC2)n[nH]1 [Compound 148]
6 nM | Cc1cc(Nc2nc(N(C)c3c(F)cc(S(C)(=O)=O)cc3F)nc(-c3cn(C)nc3C(F)F)c2C2CC2)n[nH]1 [Compound 149]
15 nM | COCCn1ccc(-c2nc(N(C)c3c(F)cc(S(C)(=O)=O)cc3F)nc(Nc3cc(C)[nH]n3)c2C2CC2)n1 [Compound 150]
7 nM | Cc1cc(Nc2nc(N(C)c3c(F)cc(S(C)(=O)=O)cc3F)nc(-c3oc(C)nc3C)c2C2CC2)n[nH]1 [Compound 151]
5 nM | [2H]C([2H])([2H])n1cc(-c2nc(N(C)c3c(F)cc(S(C)(=O)=O)cc3F)nc(Nc3cc(C)[nH]n3)c2C2CC2)c(C)n1 [Compound 152]
8 nM | [2H]C([2H])([2H])n1ncc(-c2nc(N(C)c3c(F)cc(S(C)(=O)=O)cc3F)nc(Nc3cc(C)[nH]n3)c2C2CC2)c1C [Compound 153]
10 nM | COc1c(-c2nc(N(C)c3c(F)cc(S(C)(=O)=O)cc3F)nc(Nc3cc(C)[nH]n3)c2C2CC2)cnn1C [Compound 154]
10 nM | Cc1cc(Nc2nc(N(C)c3c(F)cc(S(C)(=O)=O)cc3F)nc(-c3ccn(C(F)F)n3)c2C2CC2)n[nH]1 [Compound 155]
11 nM | Cc1cc(Nc2nc(N(C)c3c(F)cc(S(C)(=O)=O)cc3F)nc(-c3cnc(C)o3)c2C2CC2)n[nH]1 [Compound 156]
7 nM | Cc1cc(Nc2nc(N(C)c3cc(F)c(S(C)(=O)=O)cc3F)nc(-c3cn(C)nc3C)c2C2CC2)n[nH]1 [Compound 159]
2 nM | COCCn1cc(-c2nc(N(C)c3c(F)cc(S(C)(=O)=O)cc3F)nc(Nc3cc(C)[nH]n3)c2C2CC2)c(C)n1 [Compound 160]
4 nM | COCCn1ncc(-c2nc(N(C)c3c(F)cc(S(C)(=O)=O)cc3F)nc(Nc3cc(C)[nH]n3)c2C2CC2)c1C [Compound 161]
11 nM | Cc1cc(Nc2nc(N(C)c3c(F)cc(S(C)(=O)=O)cc3F)nc(-c3cc(C(F)F)n(C)n3)c2C2CC2)n[nH]1 [Compound 163]
8 nM | COCc1nc(-c2nc(N(C)c3c(F)cc(S(C)(=O)=O)cc3F)nc(Nc3cc(C)[nH]n3)c2C2CC2)cn1C [Compound 164]
4 nM | Cc1cc(Nc2nc(N(C)c3c(F)cc(S(C)(=O)=O)cc3F)nc(-c3cn(C)c(C(F)F)n3)c2C2CC2)n[nH]1 [Compound 165]
4 nM | COCc1cc(-c2nc(N(C)c3c(F)cc(S(C)(=O)=O)cc3F)nc(Nc3cc(C)[nH]n3)c2C2CC2)nn1C [Compound 166]
